Measurements from PubChem BioAssay (NCI).
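The compound was tested at five concentrations on cells cultured in 96-well plates, with a 48-hour exposure period. GI50 marks 50% less growth. TGI marks complete inhibition of growth.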

Assays:
Assay in all cases: NCI anticancer screen, dose series, 48 h
[1] = system: NCI-H226 lung
[2] = system: NCI-H23 lung
[3] = system: NCI-H460 lung
[4] = system: NCI-H522 lung
[5] = system: OVCAR-3 ovarian
[6] = system: OVCAR-4 ovarian
[7] = system: OVCAR-5 ovarian
[8] = system: OVCAR-8 ovarian
[9] = system: PC-3 prostate
[10] = system: RXF 393 renal
[11] = system: SF-268 CNS
[12] = system: SF-295 CNS
[13] = system: SF-539 CNS
[14] = system: SK-MEL-2 melanoma
[15] = system: SK-MEL-28 melanoma
[16] = system: SK-MEL-5 melanoma
[17] = system: SK-OV-3 ovarian
[18] = system: SN12C renal
[19] = system: SNB-19 CNS
[20] = system: SNB-75 CNS
[21] = system: SR leukemia
[22] = system: SW-620 colon
[23] = system: T-47D breast
[24] = system: TK-10 renal
[25] = system: U251 CNS
[26] = system: UACC-257 melanoma
[27] = system: UACC-62 melanoma
[28] = system: UO-31 renal

`C=CCN=c1sc2c(n1NC(=O)c1cc3ccc1CCc1ccc(cc1)CC3)C(=O)c1ccccc1C2=O` gave a TGI [1] of 3.35 µM, a GI50 [2] of 1.46 µM and a TGI [2] of 3.76 µM. For the same compound, the GI50 [3] was 1.94 µM, the TGI [3] was 3.97 µM and the GI50 [4] was 1.49 µM. For the same compound, the TGI [4] was 4.19 µM, the GI50 [5] was 0.328 µM and the TGI [5] was 1.43 µM. For the same compound, the GI50 [6] was 1.26 µM, the TGI [6] was 2.56 µM and the GI50 [7] was 2.03 µM. For the same compound, the TGI [7] was 4.38 µM, the GI50 [8] was 2.13 µM and the TGI [8] was 11.2 µM. It also gave a GI50 [9] of 1.49 µM, a TGI [9] of 8.81 µM and a GI50 [10] of 1.35 µM. For the same compound, the TGI [10] was 2.71 µM, the GI50 [11] was 1.68 µM and the TGI [11] was 4.48 µM. The GI50 [12] was 1.68 µM, the TGI [12] was 3.08 µM and the GI50 [13] was 1.69 µM. For the same compound, the TGI [13] was 3.12 µM, the GI50 [14] was 1.74 µM and the TGI [14] was 4.32 µM. It also gave a GI50 [15] of 1.87 µM, a TGI [15] of 3.35 µM and a GI50 [16] of 1.41 µM. For the same compound, the TGI [16] was 2.75 µM, the GI50 [17] was 3.7 µM and the TGI [17] was 23.4 µM. The GI50 [18] was 1.22 µM, the TGI [18] was 2.79 µM and the GI50 [19] was 1.67 µM. For the same compound, the TGI [19] was 3.44 µM, the GI50 [20] was 0.843 µM and the TGI [20] was 2.77 µM. The GI50 [21] was 1.78 µM, the TGI [21] was over 100 µM and the GI50 [22] was 1.63 µM. For the same compound, the TGI [22] was 3.45 µM, the GI50 [23] was 2.02 µM and the TGI [23] was 7.29 µM. The GI50 [24] was 4.48 µM, the TGI [24] was 8.14 µM and the GI50 [25] was 1.6 µM. It also gave a TGI [25] of 4.28 µM, a GI50 [26] of 1.55 µM and a TGI [26] of 3.15 µM. The GI50 [27] was 1.63 µM, the TGI [27] was 3.91 µM and the GI50 [28] was 0.496 µM. The TGI [28] was 2.09 µM.
